From PMC13185115, “Photovermellogens: Minimalistic Pyridinium-Based Acylhydrazones with Photoswitchable Basicity for Operation in Aqueous Media” (The Journal of Organic Chemistry, 2026)

Experiments:
Format in all cases: physicochemical
[1] = Thermal Z-PH+ to E-PH+ back-isomerization kinetics
Description: (§1) Photoisomerization studies were subsequently carried out in acidic medium (pH = pK a – 2) in order to assess the photoresponse of the protonated species. Under these conditions, the anticipated photoisomerization of the thermally stable E-P a–dH^+ species was investigated by UV–vis absorption spectroscopy under irradiation at 254 nm. […] It is noteworthy that the irradiation wavelength can be extended to 365 nm, yielding virtually the same observations as for 254 nm irradiation (see footnotes of Table ). Irradiation also produced clear NMR spectral changes that support the occurrence of the E→Z isomerization. In essence, the signals Hf–h of the phenyl moiety were only slightly affected, whereas those of the pyridinium and acylhydrazone fragments shifted markedly, consistent with the formation of an intramolecular hydrogen bond in the Z-P a–cH^+ species. The reverse Z→E transformation of the protonated forms P a–cH^+ was also achieved upon irradiation at λ > 420 nm, giving lower quantum yields and less favorable PSDs (Figures S145–S147, S149–154, S1).
5.5. Z-P a-cH+→E-P a-cH+ thermal back-isomerization kinetics.
Figure S155. Absorption spectrum variation during 48h at room temperature from the PSS reached for P aH·Cl (7µM, pH 6, Red) state during 48h. E-isomer absorption spectrum in green.
Even though the kinetics has not been fully completed, it can be observed that it occurs much more slowly than photochemical processes.
To obtain an estimation of P aH·Cl Z→E thermal half-live at room temperature, the Z →E thermal reversion kinetics were monitored starting from the 254nm photostationary state at different temperatures (47, 55 and 64 °C). By tracking the absorbance changes at 420 nm, an Arrhenius analysis was performed, allowing the determination of the activation energy (EA) and the estimation of the thermal half-life at 25 °C.

[2] = pKa determination of E-P a-dH+ by UV-Vis titration; details: acidity constant of the cationic E form, water, 20 mM phosphate buffer, 298 K, triplicate
Description: With the photovermellogens synthesized and fully characterized, their acid–base properties were next investigated by UV–vis spectroscopy to determine whether the pH-responsiveness characteristic of parent vermellogens was retained. Indeed, P a–dH·Cl reproduced the archetypical absorption changes of vermellogens (Figures c and S130–S137, SI1). , In essence, the characteristic intense π–π* absorption bands of the cations undergo a considerable bathochromic shift upon deprotonation (Table ), as also confirmed by our quantum chemical calculations (Figure S2, S2), causing a notable color change from yellow to red. This pronounced shift allowed the estimation of pK a values for E-P a–dH^+ via UV–vis absorption titrations, which, as for other vermellogens, fall within the biologically relevant pH range (Figure c, Table and Figures S130–S137, SI1). Changes in the protonation state were also easily monitored by ^1H NMR spectroscopy, with the gain in electronic density translating in a substantial shielding of resonances of the corresponding conjugate bases E/Z-P a–d (Figure a). As already observed for E-P a–dH^+, the deprotonated species were also thermally stable in the absence of light.
4. Determination of pK a values for E-P a-dH+ by UV-Vis spectroscopy.
All the experiments were recorded on a Jasco V-650 spectrometer. […] Considering the previously reported behaviour of vermellogens,5 UV-Vis spectra were initially recorded in the 4-12 pH range, to qualitatively determine in each case the presence or absence of characteristic absorption bands for the acidic-basic forms of the compounds. From the qualitative data, UV-Vis titrations were recorded in the appropriate pH range for each […]
Figure S132. UV-Vis spectra of P bH·Cl at pH 5 (black) and pH 12 (red) at 20 µM. b) Linear relationship at pH 5 between absorbance at 378 nm and concentration of P bH·Cl (ε = 42265 ± 838 L·mol -1·cm-1). c) Linear relationship at pH 12 between absorbance at 456 nm and concentration of P bH·Cl (ε = 42143 ± 1044 L·mol -1·cm-1). […]
Figure S134. UV-Vis spectra of P cH·Cl at pH 6 (black) and pH 12 (red) at 14 µM. b) Linear relationship at pH 6 between absorbance at 350 nm and concentration of P cH·Cl (ε = 49266 ± 1780 L·mol-1·cm-1). c) Linear relationship at pH 12 between absorbance at 433 nm and concentration of P cH·Cl (ε = 46382 ± 1667 L·mol -1·cm-1). […]
Figure S136. UV-Vis spectra of P dH·Cl at pH 6 (red) and pH 13 (black) at 11 µM. b) Linear relationship at pH 6 between absorbance at 411 nm and concentration of P dH·Cl (ε = 65691 ± 2966 L·mol-1·cm-1). c) Linear relationship at pH 13 between absorbance at 500 nm and concentration of P dH·Cl (ε = 69154 ± 3100 L·mol -1·cm-1). […]

[3] = Photostationary state distribution by 1H NMR integration; details: pD 6; for PSD E→Z (photostationary state distribution): irradiation at 254 nm; for PSD Z→E (photostationary state distribution): irradiation at >420 nm
Description: as §1

| Structure (SMILES) | k Z→E unimolecular rate constant, thermal back-isomerization ([1]; heating to 70 °C, pD 6) | pK a (E-PH^+) [2] | PSD E→Z (photostationary state distribution) [3] [% Z] | PSD Z→E (photostationary state distribution) [3] [% E] | k Z→E unimolecular rate constant, thermal back-isomerization ([1]; heating to 60 °C, pD 6) | k Z→E unimolecular rate constant, thermal back-isomerization ([1]; heating to 70 °C, pD 5) |
| --- | --- | --- | --- | --- | --- | --- |
| O=C(C=NNc1cc[n+](-c2ccccc2)cc1)c1ccccc1 [P cH^+] | 2.4 10^–4 s^–1 | 7.8 ± 0.1 | 98 | 55 |  |  |
| C[n+]1ccc(-c2ccc(NN=CC(=O)c3ccccc3)cc2)cc1 [P dH^+] |  | 11.2 ± 0.1 |  |  |  |  |
| C[n+]1ccc(NN=CC(=O)c2ccccc2)cc1 [P aH^+] |  | 8.8 ± 0.2 | 93 | 67 | 4.1 10^–4 s^–1 |  |
| C[n+]1ccc(NN=CC(=O)c2ccccc2)c2ccccc21 [P bH^+] |  | 7.2 ± 0.1 | 93 | 57 |  | 9.8 10^–4 s^–1 |
